Test results taken from article PMC7870626, “Neurotoxicity and underlying cellular changes of 21 mitochondrial respiratory chain inhibitors” (Archives of Toxicology, 2021).
Where two headings read alike, the source gives them in different places.

Experiments:
[1] = test system: LUHMES cells; assay type: cell-based, human; details: for log2FoldChange AARS: gene AARS; for log2FoldChange AARS / log2FoldChange AASDHPPT / log2FoldChange AATF / log2FoldChange ABCA1 / log2FoldChange ABCA6: vs 0.1% DMSO; for log2FoldChange AASDHPPT: gene AASDHPPT; for log2FoldChange AATF: gene AATF; for log2FoldChange ABCA1: gene ABCA1; for log2FoldChange ABCA6: gene ABCA6
Procedure: Cells were cultured and treated as described above for the NeuriTox assay. On d3, after 24 h treatment, culture medium was replaced by 33 µl/well 1 × Biospyder lysis buffer. After 15 min at room temperature, plates were sealed and frozen at -80 °C to complete lysis. Samples were analyzed at Bioclavis (Glasgow) using the TempO-Seq technique and the EU-ToxRisk v2.0 gene probe panel covering ca. 3000 genes (Yeakley et al. [2017]). All genes are listed in the supplementary excel file (containing also all gene regulations). Briefly, a 50 bp fragment of the target gene was amplified. The amplification step also introduced sample-specific barcodes. This allowed pooling of all samples and standard next-generation sequencing of the ensemble. Afterward, adapters were used to allocate the sequenced fragments to the correct samples. Finally, the alignment of all sequenced fragments (FASTQ files) for each sample to the collection of reference 50 bp oligonucleotides was performed for the quantification of reads per gene, also known as the read count values. In a pre-filtering step, samples with a total count < 0.2 million and genes with an average count < 1.5 were removed.
To correct for both read depth and RNA composition, the DESeq2′s median of ratios normalization was applied. The analysis of differentially expressed genes (DEG) of each treatment against the control group was done by the Wald test implemented in DESeq2/R (Love et al. [2014]), including an FDR correction for p-adjusted ≤ 0.05. […] A curve was fit through these concentration–response data to obtain EC10DEG. For comparability, all DEG data were normalized to a positive control. […] The EC10DEG was calculated using an established online open access BMC calculator (BMCeasy) (Krebs et al. [2020]).

[2] = test system: U2OS cells; experiment: cells; assay type: cell-based; details: Homo sapiens; U2OS osteosarcoma cells, 24 h, luminescence of constitutively expressed luciferase; read-out: Cytotox EC25 U2OS (converted)
Procedure: A cell suspension of 100,000 cells/ml was prepared in assay medium, and white 384-well plates were filled with 30 µl/well cell suspension. Twenty-four hours after seeding, a dilution series of test compound, as well as positive and negative controls, were added to the cells. After 24 h exposure, the medium was removed, and 10 µl of Triton X-100 lysis buffer was added to each well. The luminescent signal was determined in a luminometer by injecting BDS Illuminate Mix and measuring the light emission. The Cytotox CALUX cell line constitutively expresses a high level of luciferase protein; the light emission is therefore proportional to the cell number of live cells, and its decrease can be used as measure of cytotoxicity. The light emission generated by cells exposed to vehicle control was set to 100%, and the luminescence of cells exposed to the positive control toxicant tributyltin acetate [100 µM] was set to 0%. The light output of the cells exposed to different concentrations of test compounds was scaled accordingly.

[3] = test system: MRC complex (cI, cII or cIII); experiment: HepG2-based MRC complex assay in permeabilized cells (earlier study); assay type: cell-based; details: NeuriTox neurite EC25 relative to complex assay EC25 in permeabilized cells; respirometric data from HepG2-based assays ref van der Stel et al. 2020
[4] = test system: HepG2 cells; experiment: HepG2-based respirometry, total cell respiration (earlier study); details: NeuriTox neurite EC25 relative to cell respiration EC25; respirometric data from HepG2-based assays ref van der Stel et al. 2020
[5] = test system: SH-SY5Y cells; experiment: Mitochondrial membrane potential (rhodamine 123), KE2 assay; assay type: cell-based, human; details: for EC25: Homo sapiens, SH-SY5Y differentiated 6 days, treated 24 h, rhodamine-123, read-out: pEC25 MMP (concentration where MMP was reduced by 25%) (converted); for Ratios of EC25 KE4/KE2 MMP: NeuriTox neurite EC25 relative to SH-SY5Y MMP EC25
Procedure: Cells were plated at a cell density of 29,500 cells/cm^2 and handled as described above for the neurite SH-SY5Y degeneration. On d6 of differentiation, 50% of the medium was replaced by differentiation medium containing 2 µM Rhodamine 123 (ThermoFisher). After 45 min of preloading at 37 °C with 5% CO2 in darkness, the Rhodamine 123 solution was completely removed and cells were carefully washed once with 200 µl DMEM:F12. Subsequently, 50 µl differentiation medium per well were added followed by the addition of 50 µl/well of test compounds in medium. After 24 h of exposure to the test compounds, the nuclei were stained for 30 min with 20 µL of a solution containing 20 µM Hoechst 33342, and the images were then acquired with a 10 × objective lens using the ImageXpress® Micro (Molecular Devices) high content microplate imager. Nuclei were evaluated in the DAPI channel (excitation 377 ± 50 nm, emission 447 ± 60 nm), whereas Rhodamine 123 fluorescence was detected in the FITC channel (excitation 475 ± 34 nm, emission 536 ± 40 nm). Analysis of the Hoechst 33,342 and Rhodamine 123 fluorescence was performed using the MetaXpress® Software (Molecular Devices) with the Transfluor HT plug-in and the parameters nuclei (for Hoechst-33342) and integrated granule intensity (for Rhodamine 123). Mitochondrial membrane potential (MMP) was quantified as the total fluorescence intensity of Rhodamine 123 in relation to the number of Hoechst-stained nuclei.

[6] = test system: proteasome; experiment: Proteasomal activity (KE3 assay) in LUHMES cells; assay type: cell-based, human; details: NeuriTox neurite EC25 relative to proteasomal activity EC25, LUHMES
Procedure: Activity of the proteasome was quantified as described in (Gutbier et al. [2018b]). Briefly, after exposure, culture medium was replaced by assay buffer containing a cell-permeable proteasomal substrate (MeOSuc-Gly-Leu-Phe-AMC, 25 µM (Bachem, Bubendorf, Switzerland) in HBSS). Its AMC-fluorescence (ex: 360 nm, em: 465 nm) increases with proteasomal activity and was monitored for 90 min. Background-corrected data were used for further analysis.

[7] = test system: LUHMES cells; experiment: NeuriTox test: neurite area and viability, 24 h; assay type: cell-based, human
Procedure: The NeuriTox test was performed as previously described (Delp et al. [2018b]; Krug et al. [2013a]; Stiegler et al. [2011]). Briefly, cells differentiated for 48 h were re-seeded into 96-well plates at a density of 100,000 cells/cm^2 in DM without cAMP and GDNF, and treated 1 h after seeding for 24 h. Subsequently, multiple endpoints were determined, e.g., neurite outgrowth (i.e., NeuriTox test), resazurin reduction, intracellular ATP content, gene expression levels from TempO-Seq analysis, and proteasomal activity. For the 120 h exposure scenario, LUHMES cells were differentiated for another 3 days after reseeding before they were treated on day 5 (d5) and d7 by a half medium exchange. Endpoints were determined on d10 of differentiation.
Image acquisition and analysis was performed as described previously (Krug et al. [2013a]; Schildknecht et al. [2013]; Stiegler et al. [2011]). In brief, cells were live-stained with 1 µg/ml Hoechst H-33342 and 1 µM calcein-AM and image acquisition was done by an automated high content imager (Cellomics, Waltham, MA, USA). Cell viability was determined as ratio of live cells (cell bodies being Calcein- and Hoechst-positive) relative to the total amount of cells (Hoechst-positive cell bodies). Neurite area was calculated by subtracting the somatic area (Hoechst-positive area plus surrounding) from the calcein-positive area.

[8] = Homo sapiens, NeuriTox exposure scheme, 24 h, read-out: LUHMES 24 h EC25 NA (neurite area) (converted)
[9] = Homo sapiens, NeuriTox exposure scheme, 24 h, read-out: LUHMES 24 h EC25 V (viability) (converted)
[10] = Homo sapiens, NeuriTox test, neurite outgrowth impairment, LUHMES 24 h, read-out: EC25 KE4 (AO) Neurite toxicity (converted)

Row | SMILES | EC25 [2] | Ratios of EC25 KE4/KE1 complex assay [3] | Ratios of EC25 KE4/KE1 total respiration [4] | EC25 [5] | Ratios of EC25 KE4/KE2 MMP [5] | Ratios of EC25 KE4/KE3 proteasomal [6] | Offset between neurite endpoint (LUHMES/SH-SY5Y) and U2OS viability [7] | EC25 [7, 8] | EC25 [7, 9] | EC25 [7, 10] | log2FoldChange AARS ([1]; 0.20 µM, 24 h) | log2FoldChange AASDHPPT ([1]; 0.20 µM, 24 h) | log2FoldChange AATF ([1]; 0.20 µM, 24 h) | log2FoldChange ABCA1 ([1]; 0.20 µM, 24 h) | log2FoldChange ABCA6 ([1]; 0.20 µM, 24 h) | other results
1 | CCCCCC[C@H]1C(=O)O[C@H](C)[C@H](NC(=O)c2cccc(NC=O)c2O)C(=O)O[C@@H](C)[C@@H]1OC(=O)CC(C)C [Antimycin A] | 100 µM | 1580 | 1580 | 0.0631 µM | 257 | 1.1 | potentially strong neurite-specific toxicant | 15.8 µM | > 50.1 µM | 15.8 µM |  |  |  |  |  | log2FoldChange AARS ([1]; 0.08 µM, 24 h): -0.20 log2; log2FoldChange AASDHPPT ([1]; 0.08 µM, 24 h): -0.32 log2; log2FoldChange AATF ([1]; 0.08 µM, 24 h): 0.18 log2; log2FoldChange ABCA1 ([1]; 0.08 µM, 24 h): -0.64 log2; log2FoldChange ABCA6 ([1]; 0.08 µM, 24 h): 1.98 log2
2 | COc1cc(CNC(=O)CCCC/C=C/C(C)C)ccc1O [Capsaicin] | 63.1 µM |  |  | > 10 µM |  |  |  | > 50.1 µM | > 50.1 µM |  |  |  |  |  |  | log2FoldChange AARS ([1]; 0.10 µM, 24 h): -0.12 log2; log2FoldChange AASDHPPT ([1]; 0.10 µM, 24 h): 0.45 log2; log2FoldChange AATF ([1]; 0.10 µM, 24 h): -0.07 log2; log2FoldChange ABCA1 ([1]; 0.10 µM, 24 h): -0.65 log2; log2FoldChange ABCA6 ([1]; 0.10 µM, 24 h): -2.67 log2
3 | CC1=C(C(=O)Nc2ccccc2)SCCO1 [Carboxin] | > 100 µM | 32 | < 8 | 1.58 µM | 48 | < 0.8 |  | 79.4 µM | > 100 µM | 79.4 µM | -0.12 log2 | 0.26 log2 | 0.0462 log2 | -0.37 log2 | 0.78 log2 | Decrease of the MMP reached ([5]; SH-SY5Y, 24 h, non-cytotoxic concentrations): at least 50%
4 | Cc1ccc(-c2c(Cl)nc(C#N)n2S(=O)(=O)N(C)C)cc1 [Cyazofamid] | 100 µM | < 5 |  | 0.2 µM | 225 |  |  | 50.1 µM | > 50.1 µM | 50.1 µM |  |  |  |  |  | log2FoldChange AARS ([1]; 0.00781 µM, 24 h): -1.30 log2; log2FoldChange AASDHPPT ([1]; 0.00781 µM, 24 h): 1.09 log2; log2FoldChange AATF ([1]; 0.00781 µM, 24 h): -0.24 log2; log2FoldChange ABCA1 ([1]; 0.00781 µM, 24 h): -1.98 log2; log2FoldChange ABCA6 ([1]; 0.00781 µM, 24 h): 0.44 log2; Precipitation in the assay ([7]; LUHMES NeuriTox concentration range): precipitate in the active concentration range
5 | COc1cc2c(cc1OC)[C@@H]1C(=O)c3ccc4c(c3O[C@@H]1CO2)C=CC(C)(C)O4 [Deguelin] | > 50.1 µM | 250 | 32 | 0.316 µM | 13 | 0.7 | > tenfold offset | 3.98 µM | 50.1 µM | 3.98 µM |  |  |  |  |  | Number of DEGs triggered ([1]; 13 µM, 24 h, LUHMES): 325; Regulation of the 13 deguelin-sensitive genes (in words) ([1]; LUHMES 24 h): 11 out of 13 of these genes were not significantly regulated up to 0.8 µM deguelin, but clearly upregulated at 3.25 µM; log2FoldChange AARS ([1]; 0.05 µM, 24 h): -0.69 log2; log2FoldChange AASDHPPT ([1]; 0.05 µM, 24 h): 0.63 log2; log2FoldChange AATF ([1]; 0.05 µM, 24 h): -0.08 log2; log2FoldChange ABCA1 ([1]; 0.05 µM, 24 h): -2.12 log2; log2FoldChange ABCA6 ([1]; 0.05 µM, 24 h): 0.47 log2; EC50 ([7]; Homo sapiens, read-out: EC10V (10% reduction of viability), NeuriTox assay, LUHMES 24 h): 13 µM
6 | Cc1ccccc1C(=O)Nc1cccc(OC(C)C)c1 [Mepronil] | > 100 µM | > 5.0 |  | 5.01 µM |  | > 0.8 |  | 100 µM | > 100 µM | > 100 µM | 0.46 log2 | 0.19 log2 | 0.22 log2 | 0.65 log2 | 0.20 log2 | 
